Measurements reported in patent US11932654B2, “Nimbolide analogs as anti-cancer agents and preparation thereof” (priority 2018, dated 2024).

Tests used:
Format in all cases: cell-based
[1] = system: A549 lung adenocarcinoma cell line; experiment: In vitro anticancer activity, SRB assay, A549; settings: Homo sapiens, 48 h, NA = Not Active
Procedure: (§1) Cell culture: Human lung adenocarcinoma cell line (A549 cell line), pancreatic cancer cell line (Panc-1, Pan-02), prostate cancer cell line (DU145, PC3), Brest cancer cell line (MCF-7) was grown in DIEM (Dulbecco's modifications of eagle's medium with L-glutamine & 4.5 g/L glucose) supplemented with fetal bovine serum in a humidified atmosphere of a 5% CO2 at 37° C.
(§2) In vitro anticancer activity: Cells were harvested from exponential phase cultures by trypsinization, counted and plated in 96-well plate. Optimal seeding densities for different cell lines in each plate were 5000 cells per well. After 24 h cells were treated with \ the newly synthesized compound at a dose range of 0.1-100 μm final concentration. Thereafter, cells were allowed to grow for 48 h before determination of cell survival by the SRB assay. Then the cells were fixed with 10% cold trichloroacetic acid for 1 h at 4° C. After two washes with deionized water, fixed cells were stained with 50 μL of SRB solution (1% in acetic acid) for 30 min and subsequently washed twice with 1% acetic acid to remove unbound stain. The plates were left to dry at room temperature and bound stain was solubilized with 100 μL of 10 mM buffered Tris base for reading the […] at 540 nm.

[2] = system: PC3 prostate cancer cell line; experiment: In vitro anticancer activity, SRB assay, PC3; settings: 48 h, NA = Not Active
Procedure: as §1, §2

[3] = system: Panc-1 pancreatic cancer cell line; experiment: In vitro anticancer activity, SRB assay, Panc-1; settings: Homo sapiens, 48 h, NA = Not Active
Procedure: as §1, §2

[4] = system: MCF-7 breast cancer cell line; experiment: In vitro anticancer activity, SRB assay, MCF-7; settings: Homo sapiens, MCF7, 48 h, NA = Not Active
Procedure: as §1, §2

[5] = system: DU-145 prostate cancer cell line; experiment: In vitro anticancer activity, SRB assay, DU-145; settings: Homo sapiens, 48 h, NA = Not Active
Procedure: as §1, §2

IC50 [1]	IC50 [2]	IC50 [3]	IC50 [4]	IC50 [5]	Structure (SMILES)
89.4 µM	21 µM	85.5 µM	56.6 µM	–	COC(=O)C[C@H]1[C@]2(C)C3=C(C)[C@H](c4ccoc4)C[C@@H]3O[C@@H]2[C@@H]2OC(=O)[C@]3(C)C(Nc4ccccc4)CC(=O)[C@@]1(C)C23 (stereo partly shown) [A8]
23.9 µM	65.3 µM	18.6 µM	52.2 µM	–	COC(=O)C[C@H]1[C@]2(C)C3=C(C)[C@H](c4ccoc4)C[C@@H]3O[C@@H]2[C@@H]2OC(=O)[C@]3(C)C(Sc4cccc(N)c4)CC(=O)[C@@]1(C)C23 (stereo partly shown) [A7]
67.2 µM	79.1 µM	32.9 µM	32.5 µM	75.1 µM	COC(=O)C[C@H]1[C@]2(C)C3=C(C)[C@H](c4ccoc4)C[C@@H]3O[C@@H]2[C@@H]2OC(=O)[C@]3(C)CCC(=O)[C@@]1(C)C23 (stereo partly shown) [A6]
13.1 µM	1.01 µM	8.78 µM	4.72 µM	1.45 µM	COC(=O)C[C@H]1[C@]2(C)C3=C(C)[C@H](c4ccoc4)C[C@@H]3O[C@@H]2[C@@H]2OC(=O)[C@]3(C)C(OCc4ccccc4)CC(=O)[C@@]1(C)C23 (stereo partly shown) [A2]
60.8 µM	20.6 µM	1.04 µM	17.1 µM	7.91 µM	COC(=O)C[C@H]1[C@]2(C)C3=C(C)[C@H](c4ccoc4)C[C@@H]3O[C@@H]2[C@@H]2OC(=O)[C@]3(C)C4CC4C(=O)[C@@]1(C)C23 (stereo partly shown) [A5]
12.2 µM	9.08 µM	7.79 µM	4.74 µM	9.31 µM	COC(=O)C[C@H]1[C@]2(C)C3=C(C)[C@H](c4ccoc4)C[C@@H]3O[C@@H]2[C@@H]2OC(=O)[C@]3(C)C(C(O)c4ccc([N+](=O)[O-])cc4)=CC(=O)[C@@]1(C)C23 (stereo partly shown) [A3]
